In patent US4097597A, “Dibenzo[b,e][1,4]diazepines” (Abbott Laboratories, priority 1977, dated 1978):

Legend:
[1] = test system: Methamphetamine induced hyperactivity; assay: Antagonism of Methamphetamine induced hyperactivity in rats; format: in vivo, Male Long-Evans black hooded rats; set-up: key: (+): potentiation of Methamphetamine; (-): antagonism of Methamphetamine; conditions: sign printed with oral ED50; rat, oral 5, 20 and 80 mg./kg.
Description: Male Long-Evans black hooded rats, weighing between 100 and 150 grams, were administered the test drugs at oral doses of 5, 20 and 80 mg./kg. 1 hour prior to the administration of Methamphetamine at an intraperitoneal dose of 1 mg./kg. Three animals were tested at each dose level. The rats were placed in individual activity chambers equipped with photocells (Lehigh Valley, Model 1497). Antagonism of Methamphetamine induced hyperactivity was recorded as digital counts received from the photocells at one and two hour intervals. Placebo controls received a volume dose of the 0.5 carboxymethylcellulose vehicle. The data were evaluated by a one-way analysis of variance computer program. ED50 's were calculated by the method of Litchfield and Wilcoxon (J. Pharmacol. Exp. Therap.; 96:99, 1949).
In the results, a (+) indicates a potentiation of Methamphetamine and a (-) is antagonism of Methamphetamine.

[2] = test system: brain level of homovanillic acid (HVA); assay: Effect of Drug Compounds on Brain Level of Homovanillic Acid (HVA); format: in vivo, male Long Evans rats; conditions: ratio to HVA level in control group (1.0); rat brain minus cerebella, 0.15 mmoles/kg i.p. standard dose, 2 or 3 hours; only ratios greater than 1.6 considered of practical significance
Description: In testing for the effectiveness of the present drug compounds on the brain level of homovanillic acid (HVA), the drugs were administered intraperitoneally to male Long Evans rats (Simonsen) usually as aqueous solutions but in certain cases as suspensions in 0.5% methocel in 0.9% saline. The standard testing dose was 0.15 mmoles/kg. body weight. The test and control groups consisted of 3-5 and 5 animals, respectively. The analyses were performed on brains (minus cerebella) removed 2 or 3 hours later. In the analysis, standard extraction and fluorimetric methods were used.
In the results, the level of brain HVA in each test group is expressed as a ratio to the level of HVA in an accompanying control group that was injected with either a 0.9% saline or a 0.5% solution of methocel. Even though ratios of […] 1.3 usually have statistical significance, only ratios greater than 1.6 are considered to be of practical significance for the pharmacological classification of drugs.

SMILES	direction of effect on Methamphetamine [1]	HVA Ratio [2]
CCCCCCCCCCCCCCCC(=O)OCCOCCN1CCN(C2=Nc3cc(Cl)ccc3Nc3ccccc32)CC1 [IX, 8-Chloro-11-[4-2-(2-palmitoyloxyethoxy)-ethylpiperazinyl]-5H-dibenzo[b,e][1,4]diazepine]	(-)	1.0
OCCOCCN1CCN(C2=Nc3cc(Cl)ccc3Nc3ccccc32)CC1 [VI, 8-Chloro-11-[4-2-(2-hydroxyethoxy)ethyl-1-piperazinyl]-5H-dibenzo[b,e][1,4]diazepine]	(-)	2.8
COCCOCCN1CCN(C2=Nc3cc(Cl)ccc3Nc3ccccc32)CC1 [VII, 8-Chloro-11[4-2-(2-methoxyethoxy)-ethylpiperazine]-5H-dibenzo[b,e][1,4]diazepine]	(-)	3.1
OCCOCCOCCN1CCN(C2=Nc3cc(Cl)ccc3Nc3ccccc32)CC1 [VIII, 8-Chloro-11-[4-2-(2-hydroxyethoxyethoxy)-ethylpiperazinyl]-5H-dibenzo[b,e][1,4]diazepine]	(-)	1.4
CCCCCCCCCCCCCCCC(=O)OCCOCCN1CCN(C2=Nc3cc(Cl)ccc3N(C(=O)CCCCCCCCCCCCCCC)c3ccccc32)CC1 [X, 8-Chloro-11-[4-2-(2-palmitoyloxyethoxy)-ethylpiperazinyl]-5-palmitoyl-dibenzo[b,e][1,4]diazepine]	(-)	
